The values below are quoted from earlier work in publication PMC8198792, “Prediction of Anticancer Peptides with High Efficacy and Low Toxicity by Hybrid Model Based on 3D Structure of Peptides” (International Journal of Molecular Sciences, 2021).

This series deals with cancer cell lines. The arrangement: method as in 6 sources, ref CancerPPD [45] and SATPdb ||| ref CancerPPD/SATPdb ||| ref CancerPPD, SATPdb, Swissprot (PDB) ||| ref CancerPPD/SATPdb/Swissprot(PDB) ||| ref CancerPPD / SATPdb ||| ... As to conditions: cited from earlier work. From the text: Supplement ijms-22-05630-s001.zip/ACPs(seguence).xlsx, sheet "D1" | column: Activity || Supplement ijms-22-05630-s001.zip/ACPs(seguence).xlsx, sheet "D2" | column: Activity || Supplement ijms-22-05630-s001.zip/ACPs(seguence).xlsx, sheet "D3" | column: Activity || (+ 2 further places)

[1] abbreviates: ACPs dataset D3 (supplement sheet "D3"), 1 = ACP, 0 = non-ACP, ref CancerPPD [45] and SATPdb.
Setting [2] is: ACPs dataset D4 (sheet "D4"), label 1 = ACP, 0 = non-ACP, ref CancerPPD / SATPdb.
[3] abbreviates: ACPs dataset D5, sheet "D5", label 1 = ACP, 0 = non-ACP, ref CancerPPD [45] and SATPdb.
[4] abbreviates: ACPs dataset D4 (sheet "D4"), label 1 = ACP (CancerPPD ID), 0 = non-ACP (non-anticancer AMP, SATPdb ID), ref CancerPPD [45] and SATPdb.
Setting [5] is: ACPs dataset D5 (sheet "D5"), label 1 = ACP (positive set), 0 = non-ACP (negative set), ref CancerPPD [45] and SATPdb.
[6] abbreviates: ACPs dataset D1, 1 = ACP (positive), 0 = non-ACP (negative), label taken from databases, ref CancerPPD [45] and SATPdb.
Setting [7] is: ACPs dataset D4 (sheet "D4"), label 1 = ACP, experimentally validated ACPs, ref CancerPPD [45] and SATPdb.
Setting [8] is: ACPs dataset D5 (sheet "D5"), label 1 = ACP (positive set), sequences with CancerPPD/SATPdb ID, ref CancerPPD, SATPdb.
Where [9] appears, read: ACPs dataset sheet D2, 1 = ACP (CancerPPD/SATPdb ID), 0 = non-ACP (Swissprot/PDB ID), ref CancerPPD, SATPdb, Swissprot (PDB).
Setting [10] is: ACPs dataset D1, label 1 = ACP, 0 = non-ACP (non-anticancer AMPs from SATPdb), ref CancerPPD/SATPdb.
[11] abbreviates: ACPs dataset D2 (supplement ACPs(seguence).xlsx, sheet D2), dataset label 1/0 (ACP / non-ACP), entries identified by Swissprot(PDB ID), ref CancerPPD/SATPdb/Swissprot(PDB).

Like-named read-outs stand apart in the source and are kept apart here.

For the substance “RGFRKHFNKLVKKVKHTISETAHVAKDTAVIAG [satpdb11665]”, the Activity is recorded as 0 under setting [1], 0 under setting [2] and 0 under setting [3].
Take KWKLFKKIGIGKFLHSAKKF [compound 1204]: the Activity is 1 under setting [1], 1 under setting [4] and 1 under setting [5].
On to GLFAVIKKVAKVIKKL [compound 4138], for which the Activity under setting [1] is 1, the Activity under setting [4] is listed as 1 and the Activity under setting [5] is given as 1.
With “FLPAIVGAAAKFLPKIFCAISKKC [compound 4356]”, the Activity reads like this: under setting [6], 1; under setting [7], 1; under setting [8], 1; under setting [9], 1.
As for “GTFPCGESCVFIPCLTSAIGCSCKSKVCYKN [compound 4418]”, the Activity is 1 under setting [6], 1 under setting [7], 1 under setting [8] and 1 under setting [9].
Regarding TEENRELVSELKRP [satpdb12614], the Activity is, setting by setting: under setting [6], 1; under setting [7], 1; under setting [8], 1; under setting [9], 1.
Regarding KAAKKAWKAWKKAAKAAWKKAA [compound 4477], the Activity is, setting by setting: under setting [6], 1; under setting [7], 1; under setting [8], 1; under setting [9], 1.
In the case of INLKAIAAMAKKL [satpdb11272], the Activity under setting [6] was 0 and the Activity under setting [4] was 0.
For the substance PRFWEYWLRAME [compound 4586], the Activity is 1 under setting [6], 1 under setting [7], 1 under setting [8] and 1 under setting [9].
As for GIGKLFLHAAKKFAKAFVAEKMNS [satpdb10222], the Activity reads like this: under setting [6], 0; under setting [4], 0.
For the substance “KFCEKPSGTWSGVCGNSGACKDQCIRLEGAKHGSCNYKLPAHRCICYYEC [satpdb13047]”, the Activity runs as follows: under setting [10], 0; under setting [2], 0.
Consider SPWSSCSVTCGDGVITRIR [satpdb28070], for which the Activity runs as follows: under setting [6], 1; under setting [7], 1; under setting [8], 1; under setting [9], 1.
In the case of GKWMSLLKHWLK [compound 3656], the Activity was 1 under setting [1], 1 under setting [4] and 1 under setting [5].
Take “GVFTLIKGATQLIGKTLGKELGKTGLEIMACKITKQC [satpdb12576]”: the Activity is on record as 0 under setting [10] and 0 under setting [4].
GLFDVIKKVASVIKKL [compound 4084]: the Activity is 1 under setting [1], 1 under setting [4] and 1 under setting [5].
“MERSTRELCLNFTVVLITVILIWLLVRSYQY [3W5A X-ray 3.01 C 1-31]”: the Activity runs as follows: under setting [5], 0; under setting [9], 0.
In the case of “NYQWVPYQGRVPYPRGGLLkLLKklLKKLlKL [compound 3344]”, the Activity runs as follows: under setting [1], 1; under setting [4], 1; under setting [5], 1.
On to AWASFFKKAAHVGKHVGKAALTHYL [satpdb11738], for which the Activity is listed as 0 under setting [10] and 0 under setting [4].
With “ENFAGGCATG YLRTADGRCK PTF [1HRL NMR - A 1-23]”, the Activity runs as follows: under setting [5], 0; under setting [9], 0.
Consider “ISDYSIAMDKIRQQDFVNWLLAQKGKKSDWKHNITQ [satpdb11921]”, for which the Activity under setting [10] is listed as 0 and the Activity under setting [4] is reported as 0.
With GFLSILKKVLP [satpdb11215], the Activity runs as follows: under setting [6], 0; under setting [4], 0.
As for “GKIPVKAIKKAGAAIGKGLRAINIASTAHDVYSFFKPKHKKK [satpdb13363]”, the Activity is reported as 0 under setting [10] and 0 under setting [2].
For “SGSDGGVCPKILKKCRRDSDCPGACICRGNGYCG [1HA9 NMR - A 1-34]”, the Activity under setting [5] is 0 and the Activity under setting [9] is 0.
Regarding “GSIPCAESCVYIPCITGIAGCSCKNKVCYYN [satpdb12154]”, the Activity under setting [10] is on record as 0 and the Activity under setting [4] is listed as 0.
For the substance GLFDIVKKIAGHIVSSI [compound 1297], the Activity was 1 under setting [1], 1 under setting [4] and 1 under setting [5].
With “PDEDAINDALNKVCSTGRRQRSICKQLLKK [compound 3108]”, the Activity under setting [6] is on record as 1, the Activity under setting [7] was 1, the Activity under setting [8] is given as 1 and the Activity under setting [9] is 1.
In the case of INGSLDKRVQDCYHG [satpdb28376], the Activity reads like this: under setting [6], 1; under setting [7], 1; under setting [8], 1; under setting [9], 1.
Turning to “MWKWFHNVLSWWWLLADKRPARDYNRK [compound 3074]”, the Activity is 1 under setting [6], 1 under setting [7], 1 under setting [8] and 1 under setting [9].
For LKLGTLVNLAKKIL [satpdb13705], the Activity (ACPs dataset D3 (sheet "D3"), label 1 = ACP, 0 = non-ACP, ref CancerPPD/SATPdb) is given as 0; the Activity under setting [2] was 0; the Activity under setting [3] is 0.
On to “QLGELIQQGGQKIVEKIQKIGQRIRDFFSNLRPRQEA [satpdb13050]”, for which the Activity under setting [10] is given as 0 and the Activity under setting [2] is listed as 0.
With ETFADWWKLLAE [compound 5061], the Activity under setting [6] is 1, the Activity under setting [7] was 1, the Activity under setting [8] was 1 and the Activity under setting [9] is 1.
On to “MITDVQLAIFANMLGVSLFLLVVLYHYVAVNNPKKQE [2LAT NMR - A 1-37]”, for which the Activity runs as follows: under setting [11], 0; under setting [5], 0.
Turning to “YNRLCIKPRDWIDECDSNEGGERAYFRNGKGGCDSFWICPEDHTGADYYSSYRDCFNACI [1D0D X-ray 1.62,A,1-60]”, the Activity by setting is: under setting [11], 0; under setting [3], 0.
In the case of “VDENAEDTHGLCGEKTCSPAQVCLNNECACTAIRCMIFCPNGFKVDENGCEYPCTCA [3BG4 X-ray 2.50 D 1-57]”, the Activity is, setting by setting: under setting [11], 0; under setting [3], 0.
As for “DIEDFYTSETCPYKNDSQLAWDTCSGGTGNCGTVCCGQCFSFPVSQSCAGMADSNDCPNA [2NSW NMR - A 1-60]”, the Activity reads like this: under setting [11], 0; under setting [3], 0.
Regarding RCTCTTIISSSSTF [satpdb11144], the Activity is, setting by setting: under setting [6], 0; under setting [4], 0.
“GIGKFLHSAKKFGKAFVGEIMNSKKKKKKKKKK [satpdb13107]”: the Activity is given as 0 under setting [10] and 0 under setting [2].
On to GFGMALKLLKKVL [compound 3586], for which the Activity was 1 under setting [1], 1 under setting [4] and 1 under setting [5].
Consider AAPFLECQGRQGTCHFFAN [satpdb18859], for which the Activity reads like this: under setting [6], 1; under setting [7], 1; under setting [8], 1; under setting [9], 1.
As for ALWKTLLKKVLKA [satpdb10405], the Activity under setting [1] was 0.
As for GKWKKILGHLIR [compound 3645], the Activity is 1 under setting [1], 1 under setting [4] and 1 under setting [5].
With “MSGELLNAALLSFGLIFVGWALGALLLKIQGAEE [4OGQ X-ray 2.50，F，1-34]”, the Activity is, setting by setting: under setting [5], 0; under setting [9], 0.
With “AEVAPAPAAAAPAKAPKKKAAAKPKKAGPS [satpdb11318]”, the Activity was 0 under setting [6] and 0 under setting [4].
GMWSKILGHLIK [compound 3636]: the Activity is, setting by setting: under setting [1], 1; under setting [4], 1; under setting [5], 1.
For SPWDIASVTAGGVQKRS [satpdb27667], the Activity runs as follows: under setting [6], 1; under setting [7], 1; under setting [8], 1; under setting [9], 1.
As to “MATAVYRCAKCGKEVELDLATAREVRCPYCGSKILYKPRPRVARRVKAI [4QIW X-ray 3.50 P/W 1-49]”, the Activity under setting [11] is given as 0 and the Activity under setting [5] is on record as 0.
As for GLFVGVLAKVAAHVVPAIAEHF [compound 4391], the Activity runs as follows: under setting [6], 1; under setting [7], 1; under setting [8], 1; under setting [9], 1.
As to “WNPFKELERAGQRVRDAIISAAPAVATVGQAAAIARG [satpdb12131]”, the Activity was 0 under setting [10] and 0 under setting [4].
